Consider 1 molecule from patent US9862746B2, “Compositions and methods relating to hindering DOT1L recruitment by MLL-fusion proteins” (The Regents of the University of Michigan, priority 2013, dated 2018).

Read-outs that look alike come from different tables or passages of the source.

Data set [1] has as its target T1, AF9 (Homo sapiens, UniProt P42568).
T1 sequence (P42568 1-568): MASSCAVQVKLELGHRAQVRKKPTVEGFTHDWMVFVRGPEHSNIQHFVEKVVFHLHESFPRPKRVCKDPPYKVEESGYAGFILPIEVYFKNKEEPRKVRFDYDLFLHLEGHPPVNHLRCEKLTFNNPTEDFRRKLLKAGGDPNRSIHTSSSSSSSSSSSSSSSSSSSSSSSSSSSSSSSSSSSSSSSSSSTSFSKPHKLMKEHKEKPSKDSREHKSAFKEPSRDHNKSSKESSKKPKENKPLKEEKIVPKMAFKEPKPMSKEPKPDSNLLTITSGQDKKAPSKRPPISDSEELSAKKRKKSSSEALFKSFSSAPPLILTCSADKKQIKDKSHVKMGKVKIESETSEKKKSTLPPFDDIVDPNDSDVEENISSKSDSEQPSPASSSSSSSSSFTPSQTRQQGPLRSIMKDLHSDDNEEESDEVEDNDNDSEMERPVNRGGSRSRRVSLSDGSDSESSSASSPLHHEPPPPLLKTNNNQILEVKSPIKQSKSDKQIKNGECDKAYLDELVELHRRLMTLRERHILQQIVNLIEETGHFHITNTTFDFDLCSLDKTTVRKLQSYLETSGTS
As to the kind of experiment: Saturation Transfer Difference (STD) NMR. It counts as binding. On the procedure: (§1) C) Globally fitted concentration series of 38 (100, 50, 25, 12.5 and 6.25 μM) binding to immobilized AF9 using OctetRed System (see Example 12).
(§2) To provide further validation of the hit selection in addition to the biochemical assays Saturation Transfer Difference (STD), NMR spectroscopy was used. NMR spectroscopy has been successfully utilized to detect and characterize the direct binding of small-molecule compounds to large biomolecules. This technique is also allowing characterization of the binding interactions and maps the ligand-protein contacts in the bound state, delineating which chemical moieties of the ligand molecule are key for molecular recognition by the protein (group epitope mapping, FIG. 20A). […] The direct binding of 38 was also confirmed with ThermoFluor biophysical binding assay. ThermoFluor exploits a well-known biophysical phenomenon where small changes in the intrinsic melting temperature of proteins in the presence of ligands are related to the equilibrium-binding constant. Compounds that interact with the native form of the protein will shift the equilibrium to the left, increasing the Tm, the temperature at which half the protein is unfolded. In the presence of compound 38, the Tm of MBP-AF9 protein increases in a dose-dependent manner, giving ΔTm of 1.2 degree in […] (FIG. 20B).

In data set [2] the test system is MLL-AF9 transformed mouse cells. As to the kind of experiment: Cell growth of MLL-AF9 transformed mouse cells. It counts as cell-based. The following applies: 216 h. An excerpt:
(§3) FIG. 23 presents cell growth curves of A) MLL-AF9 and B) Hoxa9/Meis1 transformed mouse cells and C) adult LSKs after treatment with 38. D) H3K79 methylation after 6 days treatment with 38 and EPZ004777 DOT1L inhibitor (see, e.g., Daigle, et al., Cancer Cell 20, 53-65 (2011)).
(§4) This example involves the assessment of cellular effects of compound 38. […] Compound 38 inhibited growth of MLL-AF9 cells in a dose-dependent manner (FIG. 23A), with cell growth inhibition starting after 4 days of treatment. […] The hypothesis predicts that compounds that can block the DOT1L recruitment, but not its catalytic activity, will not affect normal hematopoiesis, as well as the global level of H3K79 methylation. To test this hypothesis, the toxicity of compound 38 was tested on purified LSK (lin-sca-1+ckit+) progenitors from adult wild type mice (FIG. 23C).

In data set [3] the target is T1, AF9. The experiment in a line: OctetRed Bio-Layer Interferometry binding to immobilized AF9. The note with it: OctetRed BLI. On the procedure:
as §1
Finally, an orthogonal measure of the disruption of the DOT1L/AF9 protein interaction was obtained using OctetRed system with Bio-Layer Interferometry (BLI) technology. This technology is allowing label-free, real-time biomolecular analysis and determination of binding kinetics and affinity. […] Using global fitting of the binding data in several tested concentrations, the kinetic parameters were calculated. The observed KD values ranged from 10 μM to 50 μM, consistent with the KD from steady state calculations.

The target in the next data set is T2, MBP-AF9 (Homo sapiens, UniProt P42568).
T2 sequence (P42568 497-568): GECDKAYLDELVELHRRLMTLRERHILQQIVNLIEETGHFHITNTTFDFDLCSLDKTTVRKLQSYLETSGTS
As to the kind of experiment: ThermoFluor binding assay, MBP-AF9. On the procedure: as §1, §2
For orientation: Differential scanning fluorimetry follows unfolding on heating by fluorescence.

The test system of the next data set is H3K79 methylation. As to the kind of experiment: Global H3K79 methylation in MLL-AF9 transformed cells. It counts as cell-based, mouse. The following applies: 6 days treatment of MLL-AF9 transformed cells.
Description: as §3, §4

In another data set the target is MBP tag (Escherichia coli, UniProt P0AEX9). The experiment in a line: ThermoFluor binding assay, MBP tag only.
Another data set has as its target T3, ENL (Homo sapiens, UniProt Q03111).
T3 construct: against AF9(497-568) and ENL (489-559) proteins running different tested concentrations over CM5 chip; MBP (pMSCG9-LIC vector); made in house; host or cells: Escherichia coli BL21 (DE3)
T3 sequence (Q03111 489-559): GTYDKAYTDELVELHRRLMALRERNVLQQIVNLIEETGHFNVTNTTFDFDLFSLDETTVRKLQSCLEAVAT
As to the kind of experiment: SPR competitive binding assay of small molecules, ENL. The note with it: SPR competitive based assay; read-out: ENL IC50 ± SD. The text has this: (§5) To further validate the binding of the confirmed compounds and identify potential promiscuous inhibitors, several secondary assays have been developed to support hit confirmation and the hit-to-probe optimization process. In order to determine that the compounds bind effectively to the target and disrupt protein-protein interaction, a SPR competitive binding assay was used. This assay uses a platform that differs from the FP-based assay where DOT1L recombinant protein (residues […]) is immobilized on a CM5 chip, allowing for testing of the inhibitors for their ability to disrupt AF9-DOT1L protein-protein interactions.
This class of compounds was also tested for their binding against ENL protein, which is highly homologous with AF9.

Data set [4] has as its system LSK (lin-sca-1+ckit+) progenitors. The experiment in a line: Toxicity on purified adult LSK progenitors. The note with it: 50 μM and 25 μM, up to seven days in culture. It counts as cell-based, mouse.
Description: as §3, §4

The test system of data set [5] is HM2 cells stably expressing Hoxa9 and Meis 1. As to the kind of experiment: Cell growth of HM2 (Hoxa9/Meis1) cells. It counts as cell-based, mouse.
Description: as §3, §4

The target of data set [6] is T4, AF9 (Homo sapiens, UniProt P42568).
T4 sequence (P42568 497-568): T2 sequence (P42568 497-568)
The experiment in a line: SPR competitive binding assay of small molecules, AF9-DOT1L. Set-up: against AF9(497-568) and ENL (489-559) proteins running different tested concentrations over CM5 chip; GB1 (pGB1-LIC vector); made in house; host or cells: Escherichia coli BL21 (DE3). The following applies: SPR competitive based assay; read-out: AF9 IC50 ± SD.
Description: Several secondary assays have already been developed to support hit confirmation and the hit-to-probe optimization process. The established and optimized SPR-based competitive assay utilizing DOT1L protein (826-1095) immobilized on the CM5 sensor chip was used as a secondary counter screen assay to validate binding of compounds to AF9. […] Both assays gave similar IC50 values.
as §5

As usually defined, the inhibition is the relative decrease from the control value, in per cent. The term Kd denotes the constant that tells how readily two partners part at equilibrium. A word on the IC50: it is the midpoint of a concentration-inhibition curve.

Turning to `CCc1ccc(S(=O)(=O)N2c3ccccc3NC3=C(C(=O)CCC3)C2c2ccco2)cc1` (racemic) [Compound 38], on AF9 [1], the “STD effects (direct binding to AF9)” value is given as “strong STD effects”. The same molecule gave an inhibition at 25 µM in data set [2] (day 9, 25 μM) of 50%. The same molecule registered an inhibition at 50 µM in data set [2] (day 9, 50 μM) of about 90%. The Kd was 10 to 50 µM on AF9 [3] (several tested concentrations, read-out: KD values, global fitting of binding data) and 35 µM on AF9 [3] (read-out: binding affinity (KD), steady state analysis). Also, on MBP-AF9, the “ΔTm of MBP-AF9 protein” value amounted to 1.2 degree. For the same molecule, the “global H3K79 methylation level” value in the data set with H3K79 methylation was “not affected”. Further, the “thermal stability of tag MBP only” value on MBP tag was “did not show any changes in thermal stability”. The figures for the IC50 at ENL and on AF9 [6] were 30.7 ± 7.7 µM and 40 ± 1.5 µM, respectively. Moreover, the “toxicity / growth inhibition of adult LSKs” value in data set [4] is on record as “not toxic to normal hematopoiesis”. Moreover, in data set [5], the “cell growth of HM2 cells” value was “not affected”.
